Earlier results as cited in patent US20230056488A1, “COMPOSITION, ARTICLE AND METHOD FOR AFFECTING A MAMMAL” (COOLHOUSE SOURCING LLC, priority 2020, published 2023).

Experiments:
[1] = oral and parenteral forms
[2] = laboratory and animal research
[3] = in vivo
[4] = test system: ionotropic glutamate receptors

C[S@@+](CC[C@H](N)C(=O)[O-])C[C@H]1O[C@@H](n2cnc3c(N)ncnc32)[C@H](O)[C@@H]1O [SAMe, (S)-2-amino-4-((SS)-(((2S,3S,4R,5R)-5-(6-amino-9H-purin-9-yl)-3,4-dihydroxytetrahydrofuran-2-yl)methyl)(methyl)sulfonio)butanoate]
crossing of the blood-brain barrier / cerebrospinal fluid concentrations [1]: cross the blood-brain barrier and increase concentrations in cerebrospinal fluid

CCCCCc1cc(O)c2c(c1)OC(C)(C)[C@@H]1CCC(C)=C[C@@H]21 [THC, tetrahydrocannabinol]
toxicity to dogs: toxic to dogs

CCCc1cc(O)c2c(c1)OC(C)(C)[C@@H]1CCC(C)=C[C@@H]21 [THCV, Tetrahydrocannabivarin]
anti-inflammatory effects [2]: some anti-inflammatory effects

CCNC(=O)CC[C@H](N)C(=O)O [Theanine, theanine]
crossing of the blood brain barrier [3]: cross the blood brain barrier (“BBB”) intact
binding to ionotropic glutamate receptors (AMPA and kainate receptors; lesser extent NMDA) [4]: micromolar range
